Patent US20240116985A1, “STAPLED PEPTIDES AND METHODS THEREOF” (priority 2020, published 2024)
≈ marks a conversion by molar mass, not a printed value.

Assay: Solubility in PBS
Assay type: physicochemical
Details: not given
Description: After ultracentrifugation of the PBS solution, the supernatant was analyzed by HPLC and compared to an HPLC injection 50 μM peptide DMSO solution. Solubility was determined by: [(Area of PBS peak)/(Area of DMSO peak)]*50 uM.
In the case of `CC(=O)N1CCC[C@]12CC=CCCCC1(CCCC=CCCCOC(=O)N3CC[C@@](C(=O)N[C@@H](Cc4ccccc4)C(=O)N[C@@H](Cc4csc5ccccc45)C(=O)N[C@@H](CCC(N)=O)C(N)=O)(C3)NC(=O)[C@H](CC(C)C)NC(=O)[C@H](Cc3ccccc3)NC(=O)[C@H](C)NC(=O)[C@H](C)NC(=O)[C@H]([C@@H](C)O)NC(=O)[C@H](CC(N)=O)NC1=O)NC(=O)[C@H](C)NC(=O)[C@H](CC(=O)O)NC2=O` (single isomer, unassigned) [I-1295, Ac-PL3-Asp-Ala-B5-Asn-Thr-Ala-Ala-Phe-Leu-PyrS2-Phe-BztA-Gln-NH2], the “Solubility” value is reported as 10 µM (≈ 18.4 µg/mL). In the case of `CC(=O)N1CCC[C@]12CC=CCCCC1(CCCC=CCCCOC(=O)N3CC[C@@](C(=O)N[C@@H](Cc4ccccc4)C(=O)N[C@@H](Cc4csc5ccccc45)C(=O)N[C@H](C(N)=O)[C@@H](C)O)(C3)NC(=O)[C@H](CC(C)C)NC(=O)[C@H](Cc3ccccc3)NC(=O)[C@H](C)NC(=O)[C@H](C)NC(=O)[C@H]([C@@H](C)O)NC(=O)[C@H](CC(N)=O)NC1=O)NC(=O)[C@H](CC(C)(C)C)NC(=O)[C@H](CC(=O)O)NC2=O` (single isomer, unassigned) [I-1299, Ac-PL3-Asp-Npg-B5-Asn-Thr-Ala-Ala-Phe-Leu-PyrS2-Phe-BztA-Thr-NH2], the “Solubility” value is reported as 10 µM (≈ 18.7 µg/mL). For `CC(=O)N1CCC[C@]12CC=CCCCC1(CCCC=CCCCOC(=O)N3CC[C@@](C(=O)N[C@@H](Cc4ccccc4)C(=O)N[C@@H](Cc4csc5ccccc45)C(=O)N[C@H](C(N)=O)[C@@H](C)O)(C3)NC(=O)[C@H](CC(C)C)NC(=O)[C@H](Cc3ccccc3)NC(=O)[C@H](C)NC(=O)[C@H](C)NC(=O)[C@H]([C@@H](C)O)NC(=O)[C@H](CC(N)=O)NC1=O)NC(=O)[C@H](CC(C)(C)C)NC(=O)[C@H](CC(=O)O)NC2=O` (single isomer, unassigned) [I-1300, Ac-PL3-Asp-Npg-B5-Asn-Thr-Ala-Ala-Phe-Leu-PyrS2-Phe-BztA-Thr-NH2], the “Solubility” value was 10 µM (≈ 18.7 µg/mL). For `CC(=O)N1CCC[C@]12CC=CCCCC1(CCCC=CCCCOC(=O)N3CC[C@@](C(=O)N[C@@H](Cc4ccsc4)C(=O)N[C@@H](Cc4csc5ccccc45)C(=O)N[C@@H](CCC(N)=O)C(N)=O)(C3)NC(=O)[C@H](CC(N)=O)NC(=O)[C@H](Cc3ccccc3)NC(=O)[C@H](C)NC(=O)[C@H](C)NC(=O)[C@H](CC(=O)O)NC(=O)[C@H](CCN)NC1=O)NC(=O)[C@H](CC(C)(C)C)NC(=O)[C@H](CC(=O)O)NC2=O` (stereo partly drawn) [I-1216, Ac-PL3-Asp-Npg-B5-Dab-Asp-Ala-Ala-Phe-Asn-PyrS2-3Thi-BztA-Gln-NH2], the “Solubility” value was 10 µM (≈ 19 µg/mL). For `CC(=O)N1CCC[C@]12CC=CCCCC1(CCCC=CCCCOC(=O)N3CC[C@@](C(=O)N[C@@H](Cc4ccccc4)C(=O)N[C@@H](Cc4cccc5ccccc45)C(=O)N[C@@H](CCC(N)=O)C(N)=O)(C3)NC(=O)[C@H](CC(C)C)NC(=O)[C@H](Cc3ccccc3)NC(=O)[C@H](C)NC(=O)[C@H](C)NC(=O)[C@H]([C@@H](C)O)NC(=O)[C@H](CC(=O)O)NC1=O)NC(=O)[C@H](CC(C)(C)C)NC(=O)[C@H](CC(N)=O)NC2=O` (stereo partly drawn) [I-1290, Ac-PL3-Asn-Npg-B5-Asp-Thr-Ala-Ala-Phe-Leu-PyrS2-Phe-1NapA-Gln-NH2], the “Solubility” value was 10 µM (≈ 18.9 µg/mL). With `CC(=O)N1CCC[C@]12CC=CCCCC1(CCCC=CCCCOC(=O)N3CC[C@@](C(=O)N[C@@H](Cc4ccccc4)C(=O)N[C@@H](Cc4csc5ccccc45)C(=O)N[C@@H](CCC(N)=O)C(N)=O)(C3)NC(=O)[C@H](CC(C)C)NC(=O)[C@H](Cc3ccccc3)NC(=O)[C@H](C)NC(=O)[C@H](C)NC(=O)[C@H]([C@@H](C)O)NC(=O)[C@H](CC(N)=O)NC1=O)NC(=O)[C@H](CC(C)(C)C)NC(=O)[C@H](CC(=O)O)NC2=O` (stereo partly drawn) [I-1294, Ac-PL3-Asp-Npg-B5-Asn-Thr-Ala-Ala-Phe-Leu-PyrS2-Phe-BztA-Gln-NH2] the “Solubility” value was 10 µM (≈ 19 µg/mL). For `CC(=O)N1CCC[C@]12CC=CCCCC1(CCCC=CCCCOC(=O)N3CC[C@@](C(=O)N[C@@H](Cc4ccccc4)C(=O)N[C@@H](Cc4cccc5ccccc45)C(=O)N[C@@H](CCC(N)=O)C(N)=O)(C3)NC(=O)[C@H](CC(C)C)NC(=O)[C@H](Cc3ccccc3)NC(=O)[C@H](C)NC(=O)[C@H](C)NC(=O)[C@H]([C@@H](C)O)NC(=O)[C@H](CC(N)=O)NC1=O)NC(=O)[C@H](CC(C)(C)C)NC(=O)[C@H](CC(=O)O)NC2=O` (stereo partly drawn) [I-1298, Ac-PL3-Asp-Npg-B5-Asn-Thr-Ala-Ala-Phe-Leu-PyrS2-Phe-1NapA-Gln-NH2], the “Solubility” value was 10 µM (≈ 18.9 µg/mL). For `CC(=O)N1CCC[C@]12CC=CCCCC1(CCCC=CCCCOC(=O)N3CC[C@@](C(=O)N[C@@H](CC4CCCCC4)C(=O)N[C@@H](Cc4csc5ccccc45)C(=O)N[C@@H](CCC(N)=O)C(N)=O)(C3)NC(=O)[C@H](Cc3ccccc3)NC(=O)[C@H](Cc3ccccc3)NC(=O)[C@H](C)NC(=O)[C@H](C)NC(=O)[C@H](CC(=O)O)NC(=O)[C@H](CC(=O)O)NC1=O)NC(=O)[C@H](CC(C)(C)C)NC(=O)[C@H](CC(=O)O)NC2=O` (stereo partly drawn) [I-1331, PL3-Asp-Npg-B5-Asp-Asp-Ala-Ala-Phe-Phe-PyrS2-Cha-BztA-Gln-NH2], the “Solubility” value was 10 µM (≈ 19.5 µg/mL). For `CC(=O)N1CCC[C@]12CC=CCCCC1(CCCC=CCCCOC(=O)N3CC[C@@](C(=O)N[C@@H](Cc4ccccc4Cl)C(=O)N[C@@H](Cc4csc5ccccc45)C(=O)N[C@@H](CO)C(N)=O)(C3)NC(=O)[C@H](CC(C)C)NC(=O)[C@H](Cc3ccccc3)NC(=O)[C@H](C)NC(=O)[C@H](C)NC(=O)[C@H](Cc3cccc(C(=O)O)c3)NC(=O)[C@H](CC(=O)O)NC1=O)NC(=O)[C@H](CC(C)(C)C)NC(=O)[C@H](CC(=O)O)NC2=O` (stereo partly drawn) [I-1333, PL3-Asp-Npg-B5-Asp-3COOHF-Ala-Ala-Phe-Leu-PyrS2-2C1F-BztA-Ser-NH2], the “Solubility” value was 10 µM (≈ 19.8 µg/mL).

Same assay, conditions: Solubility (uM)
For `CC(=O)N1CCC[C@]12CC=CCCCC1(CCCC=CCCCOC(=O)N3CC[C@@](C(=O)N[C@@H](Cc4ccsc4)C(=O)N[C@@H](Cc4csc5ccccc45)C(=O)N[C@@H](CCC(N)=O)C(N)=O)(C3)NC(=O)[C@H](CC(C)C)NC(=O)[C@H](Cc3ccccc3)NC(=O)[C@H](C)NC(=O)[C@H](C)NC(=O)[C@H](CC(=O)O)NC(=O)[C@H](CCN)NC1=O)NC(=O)[C@H](CC(C)(C)C)NC(=O)[C@H](CC(=O)O)NC2=O` (stereo partly drawn) [I-1217, Ac-PL3-Asp-Npg-B5-Dab-Asp-Ala-Ala-Phe-Leu-PyrS2-3Thi-BztA-Gln-NH2], the solubility at 15 min was 15 µM (≈ 28.5 µg/mL). With `CC(=O)N1CCC[C@]12CC=CCCCC1(CCCC=CCCCOC(=O)N3CC[C@@](C(=O)N[C@@H](Cc4ccccc4Br)C(=O)N[C@@H](Cc4csc5ccccc45)C(=O)N[C@@H](CCC(N)=O)C(N)=O)(C3)NC(=O)[C@H](CC(C)C)NC(=O)[C@H](Cc3ccccc3)NC(=O)[C@H](C)NC(=O)[C@H](C)NC(=O)[C@H](CC(=O)O)NC(=O)[C@H](CC(=O)O)NC1=O)NC(=O)[C@H](CC(C)(C)C)NC(=O)[C@H](CC(=O)O)NC2=O` (stereo partly drawn) [I-1324, PL3-Asp-Npg-B5-Asp-Asp-Ala-Ala-Phe-Leu-PyrS2-2BrF-BztA-Gln-NH2] the solubility at 15 min was 25 µM (≈ 49.8 µg/mL). Work on `CC(=O)N1CCC[C@]12CC=CCCCC1(CCCC=CCCCOC(=O)N3CC[C@@](C(=O)N[C@@H](Cc4ccccc4Br)C(=O)N[C@@H](Cc4csc5ccccc45)C(=O)N[C@@H](CCC(N)=O)C(N)=O)(C3)NC(=O)[C@H](Cc3ccccc3)NC(=O)[C@H](Cc3ccccc3)NC(=O)[C@H](C)NC(=O)[C@H](C)NC(=O)[C@H](CC(=O)O)NC(=O)[C@H](CC(=O)O)NC1=O)NC(=O)[C@H](CC(C)(C)C)NC(=O)[C@H](CC(=O)O)NC2=O` (stereo partly drawn) [I-1325, PL3-Asp-Npg-B5-Asp-Asp-Ala-Ala-Phe-Phe-PyrS2-2BrF-BztA-Gln-NH2] yielded a solubility at 15 min of 12 µM (≈ 24.3 µg/mL). For `COc1ccccc1C[C@H](NC(=O)[C@]12CCN(C1)C(=O)OCCCC=CCCCC1(CCCC=CC[C@]3(CCCN3C(C)=O)C(=O)N[C@@H](CC(=O)O)C(=O)N[C@@H](CC(C)(C)C)C(=O)N1)C(=O)N[C@@H](CC(=O)O)C(=O)N[C@@H](CC(=O)O)C(=O)N[C@@H](C)C(=O)N[C@@H](C)C(=O)N[C@@H](Cc1ccccc1)C(=O)N[C@@H](CC(C)C)C(=O)N2)C(=O)N[C@@H](Cc1csc2ccccc12)C(=O)N[C@@H](CCC(N)=O)C(N)=O` (stereo partly drawn) [I-1327, PL3-Asp-Npg-B5-Asp-Asp-Ala-Ala-Phe-Leu-PyrS2-2OMeF-BztA-Gln-NH2], the solubility at 15 min was 39 µM (≈ 75.7 µg/mL). With `COc1ccccc1C[C@H](NC(=O)[C@]12CCN(C1)C(=O)OCCCC=CCCCC1(CCCC=CC[C@]3(CCCN3C(C)=O)C(=O)N[C@@H](CC(=O)O)C(=O)N[C@@H](CC(C)(C)C)C(=O)N1)C(=O)N[C@@H](CC(=O)O)C(=O)N[C@@H](CC(=O)O)C(=O)N[C@@H](C)C(=O)N[C@@H](C)C(=O)N[C@@H](Cc1ccccc1)C(=O)N[C@@H](Cc1ccccc1)C(=O)N2)C(=O)N[C@@H](Cc1csc2ccccc12)C(=O)N[C@@H](CCC(N)=O)C(N)=O` (stereo partly drawn) [I-1328, PL3-Asp-Npg-B5-Asp-Asp-Ala-Ala-Phe-Phe-PyrS2-2OMeF-BztA-Gln-NH2] the solubility at 15 min was 26 µM (≈ 51.4 µg/mL). `CC(=O)N1CCC[C@]12CC=CCCCC1(CCCC=CCCCOC(=O)N3CC[C@@](C(=O)N[C@@H](CC4CCCCC4)C(=O)N[C@@H](Cc4csc5ccccc45)C(=O)N[C@@H](CCC(N)=O)C(N)=O)(C3)NC(=O)[C@H](CC(N)=O)NC(=O)[C@H](Cc3ccccc3)NC(=O)[C@H](C)NC(=O)[C@H](C)NC(=O)[C@H](CC(=O)O)NC(=O)[C@H](CC(=O)O)NC1=O)NC(=O)[C@H](CC(C)(C)C)NC(=O)[C@H](CC(=O)O)NC2=O` (stereo partly drawn) [I-1329, PL3-Asp-Npg-B5-Asp-Asp-Ala-Ala-Phe-Asn-PyrS2-Cha-BztA-Gln-NH2] gave a solubility at 15 min of 45 µM (≈ 86.3 µg/mL). For `CC(=O)N1CCC[C@]12CC=CCCCC1(CCCC=CCCCOC(=O)N3CC[C@@](C(=O)N[C@@H](Cc4ccccc4Cl)C(=O)N[C@@H](Cc4csc5ccccc45)C(=O)N[C@@H](CCC(N)=O)C(N)=O)(C3)NC(=O)[C@H](CC(C)C)NC(=O)[C@H](Cc3ccccc3)NC(=O)[C@H](C)NC(=O)[C@H](C)NC(=O)[C@H](Cc3cccc(C(=O)O)c3)NC(=O)[C@H](CC(=O)O)NC1=O)NC(=O)[C@H](CC(C)(C)C)NC(=O)[C@H](CC(=O)O)NC2=O` (stereo partly drawn) [I-1332, PL3-Asp-Npg-B5-Asp-3COOHF-Ala-Ala-Phe-Leu-PyrS2-2C1F-BztA-Gln-NH2], the solubility at 15 min was 13 µM (≈ 26.3 µg/mL).
